From patent publication US8778685B2 (priority 2009, dated 2014)

Legend:
[1] = no unit, species or route given; in mg/kg; cited from earlier work
[2] = in vivo

SMILES	LD50 value [1]	times less toxic than sodium cyanide [2]
CC(C)(O)C#N [acetone cyanohydrin]	18.65	–
N#CC(O)c1ccccc1 (stereo not drawn) [mandelonitrile]	116	approximately 18
